The conditions of data set [1]: after amifostine injection; cited from earlier work.
The nature of data set [2]: Safety and tolerability of the oral rinse. It is filed as in vivo, human. Conditions: for safe administration: 200 mg WR-2721 (10 ml 0.09 M) or 125 mg WR-1065 (10 ml 0.09 M). The protocol: The amifostine is administered to the patient in the formulation described above (Table 2). Specifically, 125 mg of amifostine is provided as an oral rinse. The patient rinses for approximately one minute and thereafter, expels/discards the rinse. The rinse process can be repeated.
In this study, WR-1065 is detected in washed, isolated, vital mouth mucosa cells at a concentration of about 3.7-19.9 ng/10^5 cells.

The test system of data set [3] is epirubicin-induced oral mucositis. Conditions: cited from earlier work.
For data set [4] the following is noted: cited from earlier work.
The conditions of data set [5]: intravenous administration; cited from earlier work.

With `NCCCNCCS` [WR-1065], the “time of maximum tissue concentrations of WR-1065” value in data set [1] was “within five to fifteen minutes”. In data set [2], the safe administration result is given as “can be safely administered”. In data set [2] (oral rinse), the systemic side-effects entry is recorded as “no systemic side-effects” and the tolerability result is listed as “well-tolerated”.
As for `NCCCNCCSP(=O)(O)O` [Amifostine, S-2-(3-aminopropylamino) ethyl dihydrogen phosphorothioate], the “difference between patients given amifostine oral rinse and control” value in data set [3] was “no significant difference”. Besides, the “pH of the maximal rate of hydrolysis” value in data set [4] (hydrolysis of P-S bond to WR-1065) is 3.0. Also, in data set [4] (pH from 1 to 3), the “stability at the gastric pH” value is reported as “unstable”. Further, the “clearance from the plasma” value in data set [5] is reported as “rapidly cleared”. Also, the safe administration result in data set [2] was “can be safely administered”.

The values are drawn from patent US11793820B2, “Dry powder foamable formulations for delivery of medicaments through the mucosa” (priority 2021, dated 2023).
